Eight molecules from patent US20070027201A1 (Wyeth, priority 2005, published 2007) can be followed below.

In assay [1] the target is T1, progesterone receptor (Homo sapiens, UniProt P06401).
T1 sequence (P06401 1-933): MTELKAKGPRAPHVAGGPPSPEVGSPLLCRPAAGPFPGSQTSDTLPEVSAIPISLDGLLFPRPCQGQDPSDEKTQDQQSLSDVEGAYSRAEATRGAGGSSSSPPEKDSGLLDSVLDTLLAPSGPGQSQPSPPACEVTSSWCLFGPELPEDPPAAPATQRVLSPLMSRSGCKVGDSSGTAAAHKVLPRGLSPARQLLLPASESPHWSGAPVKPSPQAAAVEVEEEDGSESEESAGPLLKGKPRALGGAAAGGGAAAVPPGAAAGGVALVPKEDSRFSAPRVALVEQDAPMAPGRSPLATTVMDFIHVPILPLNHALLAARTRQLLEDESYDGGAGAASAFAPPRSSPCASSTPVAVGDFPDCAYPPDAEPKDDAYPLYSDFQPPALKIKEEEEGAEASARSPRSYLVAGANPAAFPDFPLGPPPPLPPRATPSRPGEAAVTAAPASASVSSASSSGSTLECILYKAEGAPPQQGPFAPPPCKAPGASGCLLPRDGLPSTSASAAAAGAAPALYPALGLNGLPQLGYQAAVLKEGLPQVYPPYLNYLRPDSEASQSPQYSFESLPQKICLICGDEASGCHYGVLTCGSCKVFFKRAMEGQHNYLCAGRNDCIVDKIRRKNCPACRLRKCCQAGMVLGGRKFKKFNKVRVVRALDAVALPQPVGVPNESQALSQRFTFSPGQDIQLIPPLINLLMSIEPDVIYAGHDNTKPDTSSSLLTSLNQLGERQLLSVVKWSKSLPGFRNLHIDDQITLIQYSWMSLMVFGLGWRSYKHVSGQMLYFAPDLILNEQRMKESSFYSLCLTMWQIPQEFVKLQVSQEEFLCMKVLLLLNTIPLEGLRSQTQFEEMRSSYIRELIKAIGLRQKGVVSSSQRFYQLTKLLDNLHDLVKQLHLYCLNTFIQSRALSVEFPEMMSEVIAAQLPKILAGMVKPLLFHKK
Description: T47D alkaline phosphatase assay for progesterone receptor modulator (antagonist) activity. Format: cell-based. On the set-up: Frozen T47D cells are thawed in a 37° C. water bath and diluted to 280,000 cells/mL in culture medium; endogenous in cells; host or cells: T47D cells. To be noted: T47D cells, antagonist mode in the presence of 1 nM progesterone, 24 hours. As for the experimental part: (§1) An assay was performed to identify compounds having progesterone receptor modulator activity. This assay identifies progestins or antiprogestins by determining a compound's effect on alkaline phosphatase activity in T47D cells.
(§2) Culture medium: DMEM:F12 (1:1) (GIBCO, BRL) supplemented with 5% (v/v) charcoal stripped fetal bovine serum (not heat-inactivated), 100 U/mL penicillin, 100 μg/mL streptomycin, and 2 mM the GlutaMax® reagent (GIBCO, BRL).
(§3) Alkaline phosphatase assay buffer: • I. 0.1M Tris-HCl, pH 9.8, containing 0.2% the Triton™ X-100 reagent • II. 0.1M Tris-HCl, pH 9.8, containing 4 mM p-nitrophenyl phosphate (Sigma).
(§4) Frozen T47D cells are thawed in a 37° C. water bath and diluted to 280,000 cells/mL in culture medium. To each well in a 96-well plate (Falcon, Becton Dickinson Labware), 180 μL of diluted cell suspension is added.
Twenty μL of reference or test compounds diluted in the culture medium is then added to each well. When testing for progestin antagonist activity, reference antiprogestins or test compounds are added in the presence of 1 nM progesterone. […]
Analysis of dose-response data. […] EC50 or IC50 values are calculated from the retransformed values. […]
Progesterone and trimegestone are reference progestins and RU486 is the reference antiprogestin. All reference compounds are run in full dose response curves and the EC50 and IC50 values are calculated. […]

Assay [2] concerns the target T1, progesterone receptor. The assay is described as above. To be noted: T47D cells; for IC50: antagonist mode in the presence of 1 nM progesterone, 24 hours. The arrangement: endogenous in cells; host or cells: T47D cells. Format: cell-based. As for the experimental part: as §1, §2, §3, §4
Twenty μL of reference or test compounds diluted in the culture medium is then added to each well. When testing for progestin antagonist activity, reference antiprogestins or test compounds are added in the presence of 1 nM progesterone. The cells are incubated at 37° C. in a 5% CO2/humidified atmosphere for 24 hours.
For high throughput screening, one concentration of each compound will be tested at 0.3 μg/mL. Based on an average molecular weight of 300 g/mol for the compounds in the library, the concentration is approximately 1 μM. Subsequently, active compounds will be tested in dose response assays to determine EC50 and IC50.
At the end of treatment, the medium is removed from the plate. Fifty μL of assay buffer I is added to each well. The plates are shaken in a titer plate shaker for 15 minutes. Then 150 μL of assay buffer II is added to each well. Optical density measurements are taken at 5 minute intervals for 30 minutes at a test wavelength of 405 nm.
Analysis of dose-response data. For reference and test compounds, a dose response curve is generated for dose (x-axis) vs. the rate of enzyme reaction (slope) (y-axis). Square root-transformed data are used for analysis of variance and nonlinear dose response curve fitting for both agonist and antagonist modes. Huber weighting is used to down-weight the effects of outliers. EC50 or IC50 values are calculated from the retransformed values. The JMP® software (SAS Institute, Inc.) is used for both one-way analysis of variance and non-linear dose response analysis in both single dose and dose response studies.
Progesterone and trimegestone are reference progestins and RU486 is the reference antiprogestin. All reference compounds are run in full dose response curves and the EC50 and IC50 values are calculated.
In the table provided above, the IC50 values show the relative progesterone receptor antagonist activity in this assay. Lower numbers are indicative of higher potency, i.e., greater PR antagonist activity. Further, the assay has a standard deviation of about ±6.

The IC50 is the point on the concentration scale where inhibition reaches its midpoint. Consider `CN(C#N)c1ccc(-c2ccc(C#N)n2C)cc1` [Example 38], for which, on progesterone receptor [1], the IC50 is 88.2 nM.

`Cn1c(C#N)ccc1-c1ccc(NS(C)(=O)=O)c(OC(F)(F)F)c1` [Example 59, N-[4-(5-cyano-1-methyl-1H-pyrrol-2-yl)-2-(trifluoromethoxy)phenyl]methane-sulfonamide]: on progesterone receptor [2], the half-inhibitory concentration (IC50) amounted to 32.2 nM.

Take `CC(C)S(=O)(=O)Nc1ccc(-c2ccc(C#N)n2C)c(F)c1` [Example 44, N-[4-(5-cyano-1-methyl-1H-pyrrol-2-yl)-3-fluorophenyl]propane-2-sulfonamide]: on progesterone receptor [2], the “Active Dose” value was determined as 10 µM and the 50% inhibitory concentration (IC50) is 9.3 nM.

Take `CCS(=O)(=O)Nc1cc(F)c(-c2ccc(C#N)n2C)c(F)c1` [Example 80, N-[4-(5-cyano-1-methyl-1H-pyrrol-2-yl)-3,5-difluorophenyl]ethane-sulfonamide]: the IC50 at progesterone receptor [2] stood at 19 nM.

Turning to `CCCS(=O)(=O)Nc1ccc(-c2ccc(C#N)n2C)c(C#N)c1` [Example 76, N-[3-cyano-4-(5-cyano-1-methyl-1H-pyrrol-2-yl)phenyl]propane-1-sulfonamide], at progesterone receptor [2], the concentration for half-maximal inhibition (IC50) was 86.8 nM.

As to `CC(C)CC(=O)Nc1ccc(-c2ccc(C#N)n2C)cc1` [Example 4, N-[4-(5-cyano-1-methyl-1H-pyrrol-2-yl)phenyl]-3-methylbutanamide], the IC50 at progesterone receptor [2] turned out to be 304 nM.

In the case of `CC(C)S(=O)(=O)Nc1ccc(-c2ccc(C#N)n2C)c(C(F)(F)F)c1` [Example 56, N-[4-(5-cyano-1-methyl-1H-pyrrol-2-yl)-3-(trifluoromethyl)phenyl]propane-2-sulfonamide], the IC50 at progesterone receptor [2] stood at 25.2 nM.

Consider `CCS(=O)(=O)Nc1ccc(-c2ccc(C#N)n2C)c(C(F)(F)F)c1` [Example 53, N-[4-(5-cyano-1-methyl-1H-pyrrol-2-yl)-3-(trifluoromethyl)phenyl]ethane-sulfonamide], for which, at progesterone receptor [2], the concentration for half-maximal inhibition (IC50) was 10.2 nM.
